Experimental data from ChEMBL document CHEMBL1201862, “PubChem BioAssay data set” (2004).
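Tested at 5 concentrations; 48 h exposure; 96-well plates; endpoints linearly interpolated, else capped at highest concentration. GI50 is the concentration that inhibits growth by half.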 Active and inactive are the calls of the source. No stated cut-off is given here; in the data, active = GI50 up to about 1.1 µM and inactive = higher.

Columns and labels:
Test in all cases: DTP human tumour cell line panel, 48 h
MCF7 = system: MCF7
CCRF-CEM = system: CCRF-CEM
NCI-H23 = system: NCI-H23
IGROV-1 = system: IGROV-1
DU-145 = system: DU-145
SF-295 = system: SF-295
SF-539 = system: SF-539
KM12 = system: KM12
K562 = system: K562
NCI-H522 = system: NCI-H522
SK-MEL-2 = system: SK-MEL-2
SK-MEL-28 = system: SK-MEL-28
SW-620 = system: SW-620
EKVX = system: EKVX
HCT-15 = system: HCT-15
ACHN = system: ACHN
COLO 205 = system: COLO 205
Hs-578T = system: Hs-578T
PC-3 = system: PC-3
T47D = system: T47D
LOX IMVI = system: LOX IMVI
HT-29 = system: HT-29
OVCAR-3 = system: OVCAR-3
UACC-62 = system: UACC-62
786-0 = system: 786-0
SN12C = system: SN12C
SF-268 = system: SF-268
RPMI-8226 = system: RPMI-8226
UACC-257 = system: UACC-257
MDA-N = system: MDA-N
HOP-62 = system: HOP-62
NCI/ADR-RES = system: NCI/ADR-RES
TK-10 = system: TK-10
SNB-19 = system: SNB-19
NCI-H460 = system: NCI-H460
MDA-MB-435 = system: MDA-MB-435
MOLT-4 = system: MOLT-4
HCT-116 = system: HCT-116
UO-31 = system: UO-31
SK-MEL-5 = system: SK-MEL-5
OVCAR-5 = system: OVCAR-5
SR = system: SR
OVCAR-8 = system: OVCAR-8
A549 = system: A549
M14 = system: M14
MDA-MB-231 = system: MDA-MB-231
NCI-H226 = system: NCI-H226
HL-60 = system: HL-60
Malme-3M = system: Malme-3M
OVCAR-4 = system: OVCAR-4
U-251 = system: U-251
RXF 393 = system: RXF 393
SK-OV-3 = system: SK-OV-3
SNB-75 = system: SNB-75
CAKI-1 = system: CAKI-1
HOP-92 = system: HOP-92

Structure (SMILES): COc1ccccc1C1c2cc3c(cc2OC(N2CCOCC2)C1C)OCO3 (stereo unspecified)
- GI50 (MCF7): 23.6 µM (inactive)
- GI50 (CCRF-CEM): 13.2 µM (inactive)
- GI50 (NCI-H23): 19.8 µM (inactive)
- GI50 (IGROV-1): 27.2 µM (inactive)
- GI50 (DU-145): 18.5 µM (inactive)
- GI50 (SF-295): 13.5 µM (inactive)
- GI50 (SF-539): 14.2 µM (inactive)
- GI50 (KM12): 16.4 µM (inactive)
- GI50 (K562): 7.85 µM (inactive)
- GI50 (NCI-H522): 12.7 µM (inactive)
- GI50 (SK-MEL-2): 17.7 µM (inactive)
- GI50 (SK-MEL-28): 15.6 µM (inactive)
- GI50 (SW-620): 17.7 µM (inactive)
- GI50 (EKVX): 20.6 µM (inactive)
- GI50 (HCT-15): 16.7 µM
- GI50 (ACHN): 26.2 µM (inactive)
- GI50 (COLO 205): > 10 µM (inactive)
- GI50 (Hs-578T): 13.2 µM (inactive)
- GI50 (PC-3): 21.5 µM (inactive)
- GI50 (T47D): 13.2 µM (inactive)
- GI50 (LOX IMVI): 16.7 µM (inactive)
- GI50 (HT-29): 16.9 µM (inactive)
- GI50 (OVCAR-3): 13 µM (inactive)
- GI50 (UACC-62): 14.7 µM (inactive)
- GI50 (786-0): 18.9 µM (inactive)
- GI50 (SN12C): 17.7 µM (inactive)
- GI50 (SF-268): 16.1 µM (inactive)
- GI50 (RPMI-8226): 16.2 µM (inactive)
- GI50 (UACC-257): 15.8 µM (inactive)
- GI50 (MDA-N): 10.5 µM (inactive)
- GI50 (HOP-62): 17.8 µM (inactive)
- GI50 (NCI/ADR-RES): 22.9 µM (inactive)
- GI50 (TK-10): 22 µM (inactive)
- GI50 (SNB-19): 14 µM (inactive)
- GI50 (NCI-H460): 16.6 µM (inactive)
- GI50 (MDA-MB-435): 8.04 µM (inactive)
- GI50 (MOLT-4): 17.1 µM (inactive)
- GI50 (HCT-116): 12.4 µM (inactive)
- GI50 (UO-31): 15.9 µM (inactive)
- GI50 (SK-MEL-5): 15.4 µM (inactive)
- GI50 (OVCAR-5): 16.4 µM (inactive)
- GI50 (SR): 15.8 µM (inactive)
- GI50 (OVCAR-8): 28.3 µM (inactive)
- GI50 (A549): 17.3 µM (inactive)
- GI50 (M14): 17.5 µM (inactive)

Structure (SMILES): NNc1c(C(N)=O)c2c(N)ncnc2n1C1OC(CO)C(O)C1O (stereo unspecified)
- GI50 (MCF7): 0.0171 µM (active)
- GI50 (DU-145): < 0.01 µM (active)
- GI50 (SF-295): 0.233 µM (active)
- GI50 (K562): 0.0451 µM (active)
- GI50 (SW-620): < 0.01 µM (active)
- GI50 (EKVX): 0.078 µM (active)
- GI50 (HCT-15): 0.0175 µM
- GI50 (ACHN): 0.0107 µM (active)
- GI50 (COLO 205): 0.0129 µM (active)
- GI50 (T47D): < 0.01 µM (active)
- GI50 (LOX IMVI): 0.0112 µM (active)
- GI50 (HT-29): 0.0198 µM (active)
- GI50 (MDA-N): 0.0261 µM (active)
- GI50 (HOP-62): 0.0196 µM (active)
- GI50 (MDA-MB-231): 0.0255 µM (active)
- GI50 (HCT-116): 0.0119 µM (active)
- GI50 (SR): < 0.01 µM (active)
- GI50 (NCI-H226): 0.0536 µM (active)

Structure (SMILES): CCOC(=O)C1(C(=O)OCC)CCC(C(OC)OC)C(CC(=O)OC)C1 (stereo unspecified)
- GI50 (MCF7): > 10 µM (inactive)
- GI50 (CCRF-CEM): > 10 µM (inactive)
- GI50 (HL-60): > 10 µM (inactive)
- GI50 (NCI-H23): > 10 µM (inactive)
- GI50 (IGROV-1): > 10 µM (inactive)
- GI50 (Malme-3M): > 10 µM (inactive)
- GI50 (K562): > 10 µM (inactive)
- GI50 (OVCAR-4): > 10 µM (inactive)
- GI50 (SK-MEL-2): > 10 µM (inactive)
- GI50 (SK-MEL-28): > 10 µM (inactive)
- GI50 (SW-620): > 10 µM (inactive)
- GI50 (ACHN): > 10 µM (inactive)
- GI50 (U-251): > 10 µM (inactive)
- GI50 (COLO 205): > 10 µM (inactive)
- GI50 (T47D): > 10 µM (inactive)
- GI50 (RXF 393): > 10 µM (inactive)
- GI50 (UACC-62): > 10 µM (inactive)
- GI50 (786-0): > 10 µM (inactive)
- GI50 (SF-268): > 10 µM (inactive)
- GI50 (RPMI-8226): > 10 µM (inactive)
- GI50 (HOP-62): > 10 µM (inactive)
- GI50 (NCI/ADR-RES): > 10 µM (inactive)
- GI50 (NCI-H460): > 10 µM (inactive)
- GI50 (MDA-MB-435): > 10 µM (inactive)
- GI50 (SK-OV-3): > 10 µM (inactive)
- GI50 (MOLT-4): > 10 µM (inactive)
- GI50 (SK-MEL-5): > 10 µM (inactive)
- GI50 (SR): > 10 µM (inactive)
- GI50 (SNB-75): > 10 µM (inactive)
- GI50 (A549): > 10 µM (inactive)
- GI50 (CAKI-1): > 10 µM (inactive)
- GI50 (HOP-92): > 10 µM (inactive)
- GI50 (M14): > 10 µM (inactive)
